Reference: patent US9326986B2, “Quinazolinone, quinolone and related analogs as sirtuin modulators” (GLAXOSMITHKLINE LLC, priority 2008, dated 2016)

Biological target: T1, SIRT1 (Homo sapiens, UniProt Q96EB6)
T1 sequence (Q96EB6 1-747): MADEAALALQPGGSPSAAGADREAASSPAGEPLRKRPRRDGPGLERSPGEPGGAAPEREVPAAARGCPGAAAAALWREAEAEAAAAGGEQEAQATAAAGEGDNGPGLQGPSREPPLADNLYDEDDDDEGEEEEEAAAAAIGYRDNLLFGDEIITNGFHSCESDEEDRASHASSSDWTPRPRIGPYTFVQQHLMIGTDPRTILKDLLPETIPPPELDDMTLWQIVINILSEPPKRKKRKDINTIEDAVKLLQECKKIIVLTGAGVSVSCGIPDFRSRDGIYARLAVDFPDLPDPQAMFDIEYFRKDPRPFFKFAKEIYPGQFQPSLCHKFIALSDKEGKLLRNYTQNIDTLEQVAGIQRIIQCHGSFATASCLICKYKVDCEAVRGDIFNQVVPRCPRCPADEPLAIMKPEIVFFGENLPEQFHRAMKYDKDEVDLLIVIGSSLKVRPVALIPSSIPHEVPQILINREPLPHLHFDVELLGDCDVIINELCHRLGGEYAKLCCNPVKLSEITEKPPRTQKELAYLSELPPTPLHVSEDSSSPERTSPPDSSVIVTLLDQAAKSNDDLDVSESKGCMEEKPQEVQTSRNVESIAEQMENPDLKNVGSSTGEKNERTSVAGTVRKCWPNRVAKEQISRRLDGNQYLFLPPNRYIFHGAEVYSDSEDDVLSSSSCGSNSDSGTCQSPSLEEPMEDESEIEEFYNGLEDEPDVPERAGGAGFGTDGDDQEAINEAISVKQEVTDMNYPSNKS
Test: Mass spectrometry based assay to identify modulators of SIRT1 activity (deacetylation of p53-based acetylated peptide)
Assay type: biochemical
Conditions: 10 nM SIRT1, 0.5 μM peptide substrate, 120 μM βNAD+, 25 minutes at 25° C.; for EC1.5 μM: SIRT1 activation
Excerpt: A mass spectrometry based assay was used to identify modulators of SIRT1 activity. The mass spectrometry based assay utilizes a peptide having 20 amino acid residues as follows: Ac-EE-K(biotin)-GQSTSSHSK(Ac)NleSTEG-K(5TMR)-EE-NH2 (SEQ ID NO: 1) wherein K(Ac) is an acetylated lysine residue and Nle is a norleucine. The peptide is labeled with the fluorophore 5TMR (excitation 540 nm/emission 580 nm) at the C-terminus. The sequence of the peptide substrate is based on p53 with several modifications. In addition, the methionine residue naturally present in the sequence was replaced with the norleucine because the methionine may be susceptible to oxidation during synthesis and purification.
The mass spectrometry assay is conducted as follows: 0.5 μM peptide substrate and 120 μM βNAD^+ is incubated with 10 nM SIRT1 for 25 minutes at 25° C. in a reaction buffer (50 mM Tris-acetate pH 8, 137 mM NaCl, 2.7 mM KCl, 1 mM MgCl2, 5 mM DTT, 0.05% BSA). Test compounds may be added to the reaction as described above. […] After the 25 minute incubation with SIRT1, 10 μL of 10% formic acid is added to stop the reaction. Reactions are sealed and frozen for later mass spec analysis. Determination of the mass of the substrate peptide allows for precise determination of the degree of acetylation (i.e. starting material) as compared to deacetylated peptide (product).
A control for inhibition of sirtuin activity is conducted by adding 1 μL of 500 mM nicotinamide as a negative control at the start of the reaction (e.g., permits determination of maximum sirtuin inhibition). A control for activation of sirtuin activity is conducted using 10 nM of sirtuin protein, with 1 μL of DMSO in place of compound, to determine the amount of deacetylation of the substrate at a given timepoint within the linear range of the assay. This timepoint is the same as that used for test compounds and, within the linear range, the endpoint represents a change in velocity.
For the above assay, SIRT1 protein was expressed and purified as follows. […] The protein was expressed by induction with 1 mM IPTG as an N-terminal His-tag fusion protein at 18° C. overnight and harvested at 30,000×g. Cells were lysed with lysozyme in lysis buffer (50 mM Tris-HCl, 2 mM Tris[2-carboxyethyl]phosphine (TCEP), 10 μM ZnCl2, 200 mM NaCl) and further treated with sonication for 10 min for complete lysis. The protein was purified over a Ni-NTA column (Amersham) and fractions containing pure protein were pooled, concentrated and run over a sizing column (Sephadex S200 26/60 global). The peak containing soluble protein was collected and run on an Ion-exchange column (MonoQ). Gradient elution (200 mM-500 mM NaCl) yielded pure protein. This protein was concentrated and dialyzed against dialysis buffer (20 mM Tris-HCl, 2 mM TCEP) overnight. The protein was aliquoted and frozen at −80° C. until further use.
Sirtuin modulating compounds that activated SIRT1 were identified using the assay described above and are shown below in Tables 1 and 2. The EC1.5 values for the activating compounds are represented by A (EC1.5<1.0 μM), B (EC1.5 1-25 μM), C (EC1.5>25 μM). The percent maximum fold activation is represented by A (Fold activation>200%) or B (Fold Activation<200%).

| Compound | % Fold Act. (percent maximum fold activation) | EC1.5 μM |
| --- | --- | --- |
| Cn1c(C2CCCC2)nc2c(C(=O)Nc3ccccn3)cccc2c1=O [Compound 214] | B (Fold Activation<200%) | C (EC1.5>25 μM) |
| Cn1c(-c2cccc(C(F)(F)F)c2)nc2c(C(=O)Nc3cccc(N4CCCC4)n3)cccc2c1=O [Compound 350, 3-methyl-4-oxo-N-(6-(pyrrolidin-1-yl)pyridin-2-yl)-2-(3-(trifluoromethyl)phenyl)-3,4-dihydroquinazoline-8-carboxamide] | B (Fold Activation<200%) | B (EC1.5 1-25 μM) |
| Cn1c(-c2cnccn2)nc2c(NC(=O)c3cnccn3)cccc2c1=O [Compound 281] | B (Fold Activation<200%) | C (EC1.5>25 μM) |
| Cn1c(-c2cccc(C(F)(F)F)c2)nc2c(C(=O)Nc3cccc(CN4CCOCC4)n3)cccc2c1=O [Compound 344] | A (Fold activation>200%) | A (EC1.5<1.0 μM) |
| Cn1c(-c2ccccn2)nc2c(C(=O)Nc3ccccn3)cccc2c1=O [Compound 255] | B (Fold Activation<200%) | C (EC1.5>25 μM) |
| O=C(Nc1cccc2c(=O)[nH]c(-c3ccccc3OC(F)(F)F)nc12)c1cnccn1 [Compound 318] | A (Fold activation>200%) | A (EC1.5<1.0 μM) |
| Cn1c(-c2cccc(C(F)(F)F)c2)nc2c(NC(=O)c3ccncc3)cccc2c1=O [Compound 237] | B (Fold Activation<200%) | B (EC1.5 1-25 μM) |
| O=C(Nc1nccs1)c1cccc2c(=O)cc(-c3cccc(Cl)c3)[nH]c12 [Compound 433] | A (Fold activation>200%) | A (EC1.5<1.0 μM) |
| O=C(Nc1cccc2c(=O)cc(-c3cccc(C(F)(F)F)c3)[nH]c12)c1cccc(CN2CCOCC2)n1 [Compound 448] | A (Fold activation>200%) | A (EC1.5<1.0 μM) |
| Cn1cnc(-c2nc3c(C(=O)Nc4ccccn4)cccc3c(=O)n2C)c1 [Compound 261] | B (Fold Activation<200%) | C (EC1.5>25 μM) |
| Cn1c(-c2ccc(C(F)(F)F)cc2)nc2c(NC(=O)c3cnccn3)cccc2c1=O [Compound 251] | B (Fold Activation<200%) | B (EC1.5 1-25 μM) |
| Cc1cc(C)nc(NC(=O)c2cccc3c(=O)n(C)c(-c4cccc(C(F)(F)F)c4)nc23)c1 [Compound 306] | A (Fold activation>200%) | A (EC1.5<1.0 μM) |
| Cn1c(-c2cccc(C(F)(F)F)c2)nc2c(C(=O)Nc3ccc(OCC(O)CO)cc3)cccc2c1=O (centres unmarked) [Compound 273] | A (Fold activation>200%) | A (EC1.5<1.0 μM) |
| O=C(Nc1cccc2c(=O)cc(-c3cccc(C(F)(F)F)c3)[nH]c12)c1cccc(N2CCOCC2)n1 [Compound 425] | A (Fold activation>200%) | A (EC1.5<1.0 μM) |
| Cn1c(-c2cccc(C(F)(F)F)c2)nc2c(C(=O)Nc3cccc(CN4CC[C@H](F)C4)n3)cccc2c1=O [Compound 352] | A (Fold activation>200%) | A (EC1.5<1.0 μM) |
| Cn1c(-c2cccc(C(F)(F)F)c2)nc2c(C(=O)Nc3nc(CN4CCCC4)cs3)cccc2c1=O [Compound 357] | A (Fold activation>200%) | A (EC1.5<1.0 μM) |
| O=C(Nc1cccc2c(=O)[nH]c(-c3cccc(C(F)F)c3)nc12)c1cnccn1 [Compound 311] | B (Fold Activation<200%) | C (EC1.5>25 μM) |
| Cn1c(-c2cccc(OC(F)F)c2)nc2c(C(=O)Nc3ccccn3)cccc2c1=O [Compound 326] | A (Fold activation>200%) | A (EC1.5<1.0 μM) |
| Cn1c(-c2ccc(Cl)cc2)nc2c(C(=O)Nc3ccccn3)cccc2c1=O [Compound 244] | B (Fold Activation<200%) | C (EC1.5>25 μM) |
| CC(C)Cn1c(-c2cccc(C(F)(F)F)c2)nc2c(NC(=O)c3cnccn3)cccc2c1=O [Compound 234] | A (Fold activation>200%) | A (EC1.5<1.0 μM) |
| Cn1c(-c2cccc(C(F)(F)F)c2)nc2c(NC(=O)c3cccc(CN4CCOCC4)c3)cccc2c1=O [Compound 338] | A (Fold activation>200%) | A (EC1.5<1.0 μM) |
| Cn1nccc1-c1nc2c(NC(=O)c3cnccn3)cccc2c(=O)n1C [Compound 292] | B (Fold Activation<200%) | C (EC1.5>25 μM) |
| O=C(Nc1cccc2c(=O)cc(-c3ccccc3C(F)(F)F)[nH]c12)c1cnccn1 [Compound 445] | A (Fold activation>200%) | A (EC1.5<1.0 μM) |
| Cn1c(-c2cccc(N3CCOCC3)c2)nc2c(C(=O)Nc3ccccn3)cccc2c1=O [Compound 209] | A (Fold activation>200%) | B (EC1.5 1-25 μM) |
| O=C(Nc1cnccn1)c1cccc2c(=O)cc(-c3cccc(C(F)(F)F)c3)[nH]c12 [Compound 403] | A (Fold activation>200%) | A (EC1.5<1.0 μM) |
| O=C(Nc1ccccn1)c1cccc2c(=O)n(CCN3CCCC3)c(-c3cccc(C(F)(F)F)c3)nc12 [Compound 272] | B (Fold Activation<200%) | B (EC1.5 1-25 μM) |
| Cn1c(-c2cccc(C(F)(F)F)c2)nc2c(C(=O)Nc3cccc(CN4CC[C@@H](F)C4)n3)cccc2c1=O [Compound 345] | A (Fold activation>200%) | A (EC1.5<1.0 μM) |
| Cc1ncoc1C(=O)Nc1cccc2c(=O)n(C)c(-c3cccc(C(F)(F)F)c3)nc12 [Compound 230] | A (Fold activation>200%) | A (EC1.5<1.0 μM) |
